Measured values as given in publication PMC4420714 (Peptides, 2015).
Entries after “also recorded” stand apart in the source; their conditions may differ.

Biological target: T1, PAC1-R (Homo sapiens, UniProt P41586)
T1 sequence (P41586 21-468): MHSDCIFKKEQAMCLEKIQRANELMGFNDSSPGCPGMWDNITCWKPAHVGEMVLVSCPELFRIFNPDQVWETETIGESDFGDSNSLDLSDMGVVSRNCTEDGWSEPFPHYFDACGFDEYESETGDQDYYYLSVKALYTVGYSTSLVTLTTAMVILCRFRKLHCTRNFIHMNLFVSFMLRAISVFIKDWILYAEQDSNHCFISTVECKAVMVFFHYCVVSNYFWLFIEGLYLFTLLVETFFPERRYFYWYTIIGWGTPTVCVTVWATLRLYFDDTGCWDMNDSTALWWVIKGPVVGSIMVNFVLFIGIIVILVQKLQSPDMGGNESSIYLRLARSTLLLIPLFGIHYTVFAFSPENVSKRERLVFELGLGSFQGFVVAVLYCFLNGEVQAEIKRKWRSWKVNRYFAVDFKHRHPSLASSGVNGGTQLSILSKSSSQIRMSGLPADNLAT
Assay: Binding of 125I-PACAP27 to PAC1-R stably transfected NIH 3T3 cells
Conditions: not given

Substance	decrease in affinity for PAC1-R cells compared to native PACAP38 (or PACAP27)	higher affinity (selectivity) for PAC1-R cells over VPAC2-R/PANC-1 cells [fold]	lower affinity for PAC1-R cells than VPAC1-R/PANC-1 cells [fold]	lower affinity for PAC1-R cells than VPAC2-R/PANC-1 cells
PACAP27 [reference compound]	10 fold	2	12	
[Aib^2]PACAP38 [Peptide P15]	11–30 fold			2–9 fold
[D-Ser^2]PACAP38 [Peptide P16]	11–30 fold			

Same assay, conditions: binding IC50 ratio, VPAC1-R preferring

Substance	lower affinity for PAC1-R cells than VPAC1-R/PANC-1 cells
vasoactive intestinal peptide [VIP, reference compound]	> 1,000 fold

Same assay, conditions: binding IC50 ratio, VPAC2-R preferring

Substance	lower affinity for PAC1-R cells than VPAC2-R/PANC-1 cells [fold]
vasoactive intestinal peptide [VIP, reference compound]	> 400

Biological target: T2, VPAC1-R (Homo sapiens, UniProt P32241)
T2 sequence (P32241 31-457): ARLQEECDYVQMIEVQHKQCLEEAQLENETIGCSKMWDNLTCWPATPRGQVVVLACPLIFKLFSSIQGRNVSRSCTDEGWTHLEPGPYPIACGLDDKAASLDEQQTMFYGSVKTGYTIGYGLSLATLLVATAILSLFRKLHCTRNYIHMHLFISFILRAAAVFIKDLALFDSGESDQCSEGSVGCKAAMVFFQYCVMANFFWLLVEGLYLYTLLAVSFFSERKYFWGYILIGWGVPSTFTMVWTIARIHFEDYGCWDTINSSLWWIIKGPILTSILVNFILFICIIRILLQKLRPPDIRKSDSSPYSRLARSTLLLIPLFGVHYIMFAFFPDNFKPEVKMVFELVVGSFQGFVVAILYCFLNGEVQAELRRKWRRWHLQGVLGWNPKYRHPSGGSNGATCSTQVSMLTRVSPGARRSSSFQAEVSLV
Assay: Binding of 125I-VIP to VPAC1-R/PANC-1 cells
Conditions: not given

Substance	decrease in affinity for VPAC1-R/PANC-1 cells compared to native PACAP38 (or PACAP27, VIP)
[D-Ser^2]PACAP38 [Peptide P16]	100–500 fold

Same assay, conditions: binding IC50 ratio

Substance	higher affinity than PACAP38 for VPAC1-R/PANC-1 cells [fold]
PACAP27 [reference compound]	6

Same assay, conditions: ratio of binding IC50, analog vs native parent peptide

Substance	decrease in affinity for VPAC1-R/PANC-1 cells compared to native PACAP38 (or PACAP27, VIP)
[Me-Lys^15]PACAP27 [Peptide P2]	100–500 fold
[N-Ac-His^1,Pip^3,Aib^16,Ala^17]PACAP27 [Peptide P8]	> 1,000 fold
[Pip^3,Aib^16,Ala^17]PACAP27 [Peptide P7]	> 1,000 fold
[Pro^3]PACAP27 [Peptide P5]	100–500 fold
[Sar^3]PACAP27 [Peptide P6]	100–500 fold
[Sar^4]PACAP27 [Peptide P22]	100–500 fold

Biological target: T3, VPAC2-R (Homo sapiens, UniProt P41587)
T3 sequence (P41587 24-438): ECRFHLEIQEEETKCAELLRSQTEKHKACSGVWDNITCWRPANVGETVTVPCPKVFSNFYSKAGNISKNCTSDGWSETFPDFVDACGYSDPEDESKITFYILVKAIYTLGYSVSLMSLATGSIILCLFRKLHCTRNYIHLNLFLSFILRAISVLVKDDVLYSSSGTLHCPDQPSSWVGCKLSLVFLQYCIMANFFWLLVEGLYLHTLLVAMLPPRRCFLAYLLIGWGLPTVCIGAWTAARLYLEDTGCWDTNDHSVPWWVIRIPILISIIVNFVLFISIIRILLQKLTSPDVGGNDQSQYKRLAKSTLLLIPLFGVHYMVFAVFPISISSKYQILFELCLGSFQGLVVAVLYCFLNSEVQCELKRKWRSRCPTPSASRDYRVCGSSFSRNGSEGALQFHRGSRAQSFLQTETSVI
Assay: Binding of 125I-PACAP27 to VPAC2-R/PANC-1 cells
Conditions: ratio of binding IC50, analog vs native parent peptide

Substance	decrease in affinity for VPAC2-R/PANC-1 cells compared to native PACAP38 (or PACAP27, VIP)
[Aib^16,28,Ala^17,Lys^34,D-Lys^38]PACAP38 [Peptide P34]	2-to-6 fold
[Aib^16,Ala^17,Lys^34]PACAP38 [Peptide P30]	2-to-6 fold
[Ala^16,17,D-Lys^38]PACAP38 [Peptide P23]	2-to-6 fold
[D-Ser^2,Lys(Palmitoyl)^38]PACAP38 [Peptide P13]	16–21 fold
[D-Ser^2]PACAP38 [Peptide P16]	15–500 fold
[Hyp^3,Aib^16,Ala^17,Lys^34]PACAP38 [Peptide P31]	50–400 fold
[Hyp^3,Ala^16,17]PACAP38 [Peptide P20]	50–400 fold
[Me-Lys^15]PACAP27 [Peptide P2]	6–132 fold
[Pro^3]PACAP27 [Peptide P5]	6–132 fold
[Sar^3]PACAP27 [Peptide P6]	6–132 fold
[Sar^4]PACAP27 [Peptide P22]	6–132 fold

Biological target: T1, PAC1-R
Assay: [3H]cAMP generation in PAC1-R cells
Type: cell-based
Conditions: not given

Substance	coupling ratio (IC50-binding affinity/EC50-cAMP generation), PAC1-R cells [fold]	maximal increase in cAMP, PAC1-R cells [fold]	higher potency for PAC1-R cells compared to VPAC1-R/PANC-1 cells	higher potency for PAC1-R cells compared to VPAC2-R/PANC-1 cells	[3H]cAMP PAC1-R % max (agonist class)
PACAP27 [reference compound]	94	4.1 ± 1.5			
[D-Ser^2]PACAP38 [Peptide P16]			2-to-5 fold	12–140 fold	
vasoactive intestinal peptide [VIP, reference compound]					No Act

Same assay, conditions: cAMP generation

Substance	less potent than PACAP38 and PACAP27 at stimulating PAC1-R cells [fold]
vasoactive intestinal peptide [VIP, reference compound]	> 800

Same assay, conditions: over control

Substance	maximal increase in cAMP, PAC1-R cells [fold]
vasoactive intestinal peptide [VIP, reference compound]	4.1 ± 1.5

Biological target: T2, VPAC1-R
Assay: [3H]cAMP generation in VPAC1-R/PANC-1 cells
Type: cell-based
Conditions: not given

Substance	coupling ratio (IC50-binding affinity/EC50-cAMP generation), VPAC1-R/PANC-1 cells [fold]	maximal increase in cAMP, VPAC1-R/PANC-1 cells [fold]
PACAP27 [reference compound]	1.2	
vasoactive intestinal peptide [VIP, reference compound]		5.0 ± 0.7

Same assay, conditions: VPAC1-R/PANC-1 cells; partial agonist maximum

Substance	[3H]cAMP VPAC1-R/PANC-1 % max of partial agonist
[N-Ac-His^1,Pip^3,Aib^16,Ala^17]PACAP27 [Peptide P8]	pAg (24) % max

Same assay, conditions: VPAC1-R/PANC-1 cells; relative to PACAP38; up to 1 µM

Substance	[3H]cAMP VPAC1-R/PANC-1 % max (agonist class)
[Me-Lys^15]PACAP27 [Peptide P2]	Ag (1 µM, 68)
[N-Ac-His^1,Pip^3,Aib^16,Ala^17]PACAP27 [Peptide P8]	partial agonists; also recorded: pAg (24)
[Pip^3,Aib^16,Ala^17]PACAP27 [Peptide P7]	no agonist activity; also recorded: No Act
[Pro^3]PACAP27 [Peptide P5]	Ag (1 µM, 23)
[Sar^4]PACAP27 [Peptide P22]	no agonist activity; also recorded: No Act

Same assay, conditions: over control

Substance	maximal increase in cAMP, VPAC1-R/PANC-1 cells [fold]
PACAP27 [reference compound]	5.0 ± 0.7

Biological target: T2, VPAC1-R
Assay: [3H]cAMP generation in T47D cells
Type: cell-based
Conditions: at 1 µM

Substance	[3H]cAMP T47D % max, agonist activity at 1 µM, still increasing
[Pro^3]PACAP27 [Peptide P5]	Ag (1 µM, 16) % max
[Sar^3]PACAP27 [Peptide P6]	Ag (1 µM, 69) % max

Same assay, conditions: relative to PACAP38, up to 1 µM

Substance	[3H]cAMP T47D % max (agonist class)
[Me-Lys^15]PACAP27 [Peptide P2]	No Act
[N-Ac-His^1,Pip^3,Aib^16,Ala^17]PACAP27 [Peptide P8]	No Act
[Pip^3,Aib^16,Ala^17]PACAP27 [Peptide P7]	No Act
[Pro^3]PACAP27 [Peptide P5]	Ag (1 µM, 16)
[Sar^3]PACAP27 [Peptide P6]	Ag (1 µM, 69)
[Sar^4]PACAP27 [Peptide P22]	No Act

Biological target: T3, VPAC2-R
Assay: [3H]cAMP generation in VPAC2-R/PANC-1 cells
Type: cell-based
Conditions: not given

Substance	coupling ratio (IC50-binding affinity/EC50-cAMP generation), VPAC2-R/PANC-1 cells [fold]	maximal increase in cAMP, VPAC2-R/PANC-1 cells [fold]
PACAP27 [reference compound]	4.8	
vasoactive intestinal peptide [VIP, reference compound]		6.5 ± 2.0

Same assay, conditions: VPAC2-R/PANC-1 cells; relative to PACAP38; up to 1 µM

Substance	[3H]cAMP VPAC2-R/PANC-1 % max (agonist class)
[Hyp^3,Ala^16,17]PACAP38 [Peptide P20]	Ag (1 µM, 35)
[Me-Lys^15]PACAP27 [Peptide P2]	Ag (1 µM, 19)
[N-Ac-His^1,Pip^3,Aib^16,Ala^17]PACAP27 [Peptide P8]	Ag (1 µM, 13)
[Pip^3,Aib^16,Ala^17]PACAP27 [Peptide P7]	no agonist activity; also recorded: No Act
[Pro^3]PACAP27 [Peptide P5]	no agonist activity; also recorded: No Act
[Sar^3]PACAP27 [Peptide P6]	no agonist activity; also recorded: No Act
[Sar^4]PACAP27 [Peptide P22]	no agonist activity; also recorded: No Act

Same assay, conditions: over control

Substance	maximal increase in cAMP, VPAC2-R/PANC-1 cells [fold]
PACAP27 [reference compound]	6.5 ± 2.0
